US11667949B2, “Reporter construct and biosensor for interferon second messenger 2-5A” (The Trustees of Princeton University, priority 2018, dated 2023)
Read-outs that look alike come from different tables or passages of the source. Numbered stars: 1 amine (or outer) side, 2 acyl side, 3 side chain; on linkers, the order of the positions; unused ones are H or OH. Bridge positions count the residues as written; N and C are the ends. Square brackets hold non-standard residues; d marks the D form. Peptide text beside a SMILES is read from it. I, II: the chains in the order shown. Actinocin(9to1) = Cc1c2oc3c(C)ccc(C(=O)[*:1])c3nc-2c(C(=O)[*:2])c(N)c1=O; NMeV = CN[C@H](C(=O)O)C(C)C; Sar = CNCC(=O)O

What was measured:
[1] = test system: A549 cells; test: Nascent protein synthesis by puromycin pulse labeling; assay type: cell-based, human
Protocol: Ribopuromycilation and ^35S labeling to monitor nascent translation: To generate puromycin-tagged nascent peptides, human cells were treated with 0.1-1 μg/mL of poly-IC for times specified on the figures, after which the growth media was supplemented with 10 μg/mL puromycin (Invitrogen). Puromycin pulse lasted for 5 min. Cells were trypsinized and harvested in NuPAGE LDS sample buffer for western blot analyses. Proteins were separated by 10% BisTris PAGE (NuPAGE), and transferred on PVDF membranes (Life Technologies). The membrane was stained with Ponceau to normalize for sample loading, then washed and blocked with 5% non-fat dry milk in TBST buffer. The membranes were probed with 1:1000 mouse anti-puromycin antibody (EMD Millipore) that binds to de novo synthesized proteins, followed by horseradish peroxidase-conjugated goat anti-mouse secondary antibody (1:10,000, Jackson ImmunoResearch). Metabolic labeling with ^35S was conducted using the following procedure. After cell treatment with poly-IC, media was changed to methionine-free RPMI+10% FBS supplemented with 11 μCi EASY TAG™ EXPRESS35S Protein Labeling Mix (Perkin Elmer). Cellular proteins were resolved by 10% BisTris PAGE (NuPAGE) and analyzed by phosphorimaging.

[2] = target: T1, RNase L (Homo sapiens, UniProt Q05823); conditions: cited from earlier work
T1 sequence (Q05823 1-741): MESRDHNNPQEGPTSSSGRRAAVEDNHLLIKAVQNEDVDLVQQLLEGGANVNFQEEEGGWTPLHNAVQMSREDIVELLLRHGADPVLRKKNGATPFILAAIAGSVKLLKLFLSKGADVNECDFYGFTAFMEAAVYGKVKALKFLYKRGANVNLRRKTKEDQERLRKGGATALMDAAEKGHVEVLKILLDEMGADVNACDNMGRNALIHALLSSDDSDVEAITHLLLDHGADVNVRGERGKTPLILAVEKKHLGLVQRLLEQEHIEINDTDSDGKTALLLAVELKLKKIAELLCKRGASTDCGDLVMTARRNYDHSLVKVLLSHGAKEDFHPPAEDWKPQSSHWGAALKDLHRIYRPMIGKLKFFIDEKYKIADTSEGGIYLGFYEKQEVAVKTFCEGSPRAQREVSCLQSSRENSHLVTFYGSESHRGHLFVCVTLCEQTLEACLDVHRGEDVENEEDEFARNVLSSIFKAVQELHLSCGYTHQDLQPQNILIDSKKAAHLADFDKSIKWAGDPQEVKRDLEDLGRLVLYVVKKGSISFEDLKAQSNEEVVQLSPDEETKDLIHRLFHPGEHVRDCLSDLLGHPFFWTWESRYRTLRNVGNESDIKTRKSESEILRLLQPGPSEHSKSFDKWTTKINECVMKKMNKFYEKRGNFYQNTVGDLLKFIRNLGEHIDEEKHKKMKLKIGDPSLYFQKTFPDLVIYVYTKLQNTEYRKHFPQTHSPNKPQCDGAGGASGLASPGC

[3] = test system: A549 cells; test: Live cell 2-5A measurements in A549 cells stably expressing FLAG-V6 biosensor; assay type: cell-based, human; conditions: pre-treatment before poly-IC
Protocol: Live cell 2-5A measurements in stable cell lines expressing V6 or V6-Y312A reporters: A549 or HeLa cells stably expressing V6 or V6-Y312A control reporters were seeded at a density of 1·10^4 /well on TC-treated, clear flat bottom white 96-well plates. Before transfection with poly-IC, cells were pre-treated with 100 μM D-luciferin ethyl ester (1% DMSO) (f/c) (Marker Gene Technologies). After one hour of substrate pre-treatment, a poly-IC/lipofectamine complex (1 μg/mL Poly-IC+0.5 μL Lipofectamine 2000 in a final volume of 100 μL) was added to the cells along with a second addition of 100 μM D-luciferin and HEPES (pH 7.5; 20 mM f/c). Dilutions of poly-IC were made by diluting the poly-IC/lipofectamine complexes. Luminescence measurements were taken in repeat-mode using plate reader at time intervals shown on the figures. After three hours, fresh D-luciferin ethyl ester (100 μM) was re-supplied at every hour to ensure excess reporter substrate. Luminescence acquisition time was one minute per well. For IFN-β pre-treatment, a dose of 1000 U/mL (f/c) was used 24 hours before poly-IC treatment.

[4] = test system: A549 cells; test: Secreted IFN detection by qPCR in conditioned media; assay type: cell-based, human
Protocol: qRT-PCR analysis: Cells were harvested in 350 μL RLT buffer (Qiagen) and RNA was purified according to the RNeasy protocol (Qiagen). cDNA was prepared using oligo-dT and a High Capacity RNA to cDNA kit (Applied Biosystems). qPCR was performed using the Power SYBR green PCR mix in a 96 well format on StepOnePlus qPCR instrument (Life Technologies). qPCR primers used in this work were from Integrated DNA Technologies and are available via the manufacturer if not specifically recited in the Table below.
Secreted IFN detection by qPCR in conditioned media: A549 WT and RNase L knock out (KO) cells in 12-well plates were transfected with 1 μg/mL poly-IC and lipofectamine 2000 for 0.5, 2 or 6 hours. At the end of the time course, cells were washed four times with 1 mL of growth medium (RPMI+10% FBS) to remove residual poly IC. After the washes, fresh 1 mL medium was added and the cells were kept in fresh media for one hour to allow for protein secretion. Treatments of naive cells with conditioned media were done in a separate 12-well plate and using cells seeded 1 day before the analysis. Naïve cell media was replaced with 1 mL of the conditioned medium from above. Cells were grown in the conditioned media for 16 hours and harvested in 300 μL RLT (Qiagen). For pulse-chase experiments in FIG. 9C, 10 μM anisomycin was added 3 hours after poly-IC addition. Anisomycin level was additionally maintained during the last hour allocated for IFN secretion into fresh media.

[5] = test system: HeLa cells; test: Reporter assay in live cells transfected with V6 or Y312A V6 constructs; assay type: cell-based, human
Protocol: Reporter assay in live cells: NLS and NES tag sequences cloned in the reporter immediately following the FLAG tag were […] (SEQ ID NO: 4) and […] (SEQ ID NO: 5), respectively. […] These 96 well plates were clear bottom and white for optimum luminescence readings. […] Luminescence acquisition time: 1 minute/well.

[6] = test system: HeLa cells; conditions: poly IC 6 hours, <3 kDa flow-through, V6 reporter in vitro
Protocol: In vitro Luminescence assays: The luminescence reactions contained 20 mM Hepes (pH7.4), 100 mM NaCl, 5 mM MgCl2, 5% (vol/vol) glycerol, 1 mM DTT, 3 mM ATP, 250 uM Coenzyme A hydrate (Sigma Aldrich). After adding specified concentrations of reporter protein and 2-5A (p2-5A3, pA3), D-luciferin, Potassium salt (Gold Biotechnology) was added at a final concentration of 400 uM. The reactions were allowed to stabilize for 2 minutes and immediately after luminescence measurements were taken on a plate reader (Berthold Technologies). Acquisition time for the reaction was set to be 10 seconds.
2-5A extraction: HeLa cells treated for 6 hours with 1 ug/ml polyIC were lysed with RIPA (Thermo Fisher Scientific) buffer along with 0.5 mM PMSF protease inhibitor. The lysate was spun down at 12000 g for 10 minutes at 4° C. The supernatant was passed through a 3 KDa centrifugal filter to collect small nucleic acids. An equivalent amount of RNA from mock or polyIC treated sample was added to the luminescence assay.

[7] = test system: HeLa cells; conditions: stable monoclonal HeLa reporter cells
Protocol: In an additional experiment, HeLa cells were stably transduced with a lentiviral construct containing the reporter. A monoclonal population of reporter expressing cells was then selected by limiting serial dilution. For reporter assay, these monoclonal cells were seeded at a cell density of 2×10^5 cells per well on 96 well plates. After the cells adhered to the plates (in approximately 6 hours), the cells were pre-treated with 100 uM D-luciferin ethyl ester (1% DMSO) (f/c). After one hour of substrate pre-treatment, poly IC-Lipofectamine complexes were added to the cells along with a second addition of 100 uM D-luciferin substrate. Luminescence measurements were taken on Repeated mode in the plate reader: every 15 minutes for the course of three hours. Luminescence acquisition time: 1 minute/well.

## 2′-5′-linked oligoadenylates [2-5A]
[1]; 2-5A activated RNase L
  attenuation of basal cell-wide translation: more than 1,000 fold
[2]
  affinity for latent RNase L: sub-nanomolar

## Cc1c2oc3c(C)ccc(C(=O)N[C@@H]4C(=O)N[C@H](C(C)C)C(=O)N5CCC[C@H]5C(=O)N(C)CC(=O)N(C)[C@@H](C(C)C)C(=O)O[C@@H]4C)c3nc-2c(C(=O)N[C@@H]2C(=O)N[C@H](C(C)C)C(=O)N3CCC[C@H]3C(=O)N(C)CC(=O)N(C)[C@@H](C(C)C)C(=O)O[C@@H]2C)c(N)c1=O [Actinomycin D] (I: T[dV]P[Sar][NMeV] / II: T[dV]P[Sar][NMeV]; ester I:1-I:C, II:1-II:C; linker I:N-II:N via Actinocin(9to1))
[3]
  OAS/RNase L activation after pre-treatment with transcription inhibitor: not inhibited

## COc1ccc(C[C@H]2NC[C@H](O)[C@H]2OC(C)=O)cc1 [anisomycin]
[4]; 10 μM anisomycin added 3 hours after poly-IC, before the IFN response
  IFN production (IFN activity in the media): blocked IFN production
[4]; naïve cells, control experiment
  effect on ISG mRNAs: mild stimulatory effect

## poly-Inosine/poly-Cytidine [poly IC]
[1]; WT A549 cells, before ISG induction
  global translation: halted global translation
[5]; 30 minutes
  2-5A build-up, fold, poly IC treated vs untreated cells: 2.4 fold
[5]; 3 hours post poly IC treatment
  maximum fold change of reporter: 30 fold
[6]
  stimulation of the reporter by nucleic acids from poly IC treated vs mock treated cells: roughly 8 fold
[7]; 30 mins
  2-5A build-up, fold change with poly IC vs without poly IC: 3.7 fold
[7]; 3.5 hours after poly IC treatment
  maximum fold change of reporter: 28 fold
[4]; media of poly I:C-treated WT and RNase L−/− cells, time points beyond translational arrest
  ISG induction by conditioned media: two orders of magnitude
